Data: US20190274981A1, “OLEANOLIC ACID ENHANCES MESENCHYMAL STROMAL CELL OSTEOGENIC POTENTIAL BY INHIBITION OF NOTCH SIGNALING” (Board of Supervisors of Louisiana State University and …, priority 2018, published 2019)
“Also recorded” adds a separate entry of the source.

Experiments:
MSCs [1] = assay: Cell viability assay (MTT); format: cell-based, human; details: 12 hours
Protocol: (§1) Cell culture and treatment: The human MSCs were purchased from Lonza. Oleanolic acid was obtained from Sigma-Aldrich (Aldrich-5504). A 100 mM solution of OA was prepared in dimethyl sulfoxide (DMSO), and all test concentrations were prepared by diluting the stock solution in cell culture medium. […] After expansion, cells were exposed to media containing OA and/or BMP2 for certain days. […] At the end, cells were harvested at different time points for analyses as described below.
Cell viability assay: MSC viability was measured using MTT (3-(4, 5-dimethylthiazole-2-yl)-2, 5-diphenyl tetrazolium bromide) based in vitro toxicology assay kit (Sigma, St. Louis, Mo., USA). Briefly, cells were seeded in 96-well plates. After growing into 50-60% confluence, cells were exposed to various concentrations of OA for 12 hours, then the supernatant was discarded, and cells were treated with 0.5 mg/ml MTT staining solution for another four hours. After incubation, the supernatant was removed and 50 μl of solubilization buffer provided by the Sigma kit with 0.5% DMSO was added. DMSO was added to ensure total solubility of the formazan crystals. Plates were shaken for two minutes, and the absorbance recorded at 590 nm on an automated microtiter plate reader. The percent viability was expressed as a percentage of that in the vehicle control (with subtraction of background absorbance).

MSCs [2] = assay: MSC osteogenic differentiation assay, real time RT-PCR of osteogenic markers; format: cell-based, human; details: OA 10 and 20 μM, seven days, vs DMSO treated control MSCs
Protocol: as §1
(§2) MSC osteogenic differentiation assay: Osteogenic differentiation assays of MSCs were performed using the Osteogenic differentiation bulletKit® (Lonza). MSCs were cultured at 200,000 cells/well in 6-well plates to confluence. Stem cell growth media was then replaced with osteogenic media supplied with or without OA and BMP2. After seven days of culture, alkaline phosphatase (ALP) staining, RNA, and protein isolation were performed as described in our published protocols.
(§3) Real time RT-PCR: cDNA was synthesized from 1 μg total RNA using the SuperScript III reverse transcriptase kit (Invitrogen) in a final volume of 20 μl. Primers were designed with the IDT SCI primer design tool (Integrated DNA Technologies, San Diego, Calif.). RT-PCR experiments were performed with a Bio-Rad C1000 thermal cycler (Bio-Rad, Hercules, Calif.), and real-time PCR experiments were performed with an ABI prism 7500 (Applied Biosystems, Grand Island, N.Y.) in triplicate. Sequence for each primer pair were: Hes1, forward primer 5′-[…]-3′, reverse primer 5′-[…]-3′; ALP, forward primer 5′-[…]-3′, reverse primer 5′-[…] […]-3′; Runx2, forward primer 5′-[…]-3′, reverse primer 5′-[…]-3′; Osteocalcin (OC), forward primer 5′-[…]-3′, reverse primer 5′-[…]-3′; Osteopontin (OPN), forward primer 5′-[…]-3′, reverse primer 5′-[…]-3′; Type I collagen (Col1a1), forward primer 5′-[…]-3′, reverse primer 5′-[…]-3′; β-actin, forward primer 5′-[…]-3′; reverse primer 5′-[…] […]-3′. Samples were analyzed in triplicate, and the raw data consisted of PCR cycle numbers required to reach a fluorescence threshold level. The relative expression level of target genes was normalized to (β-actin gene.

MSCs [3] = assay: MSC osteogenic differentiation assay, ALP staining; format: cell-based, human
Protocol: Cell culture and treatment: The human MSCs were purchased from Lonza. Oleanolic acid was obtained from Sigma-Aldrich (Aldrich-5504). A 100 mM solution of OA was prepared in dimethyl sulfoxide (DMSO), and all test concentrations were prepared by diluting the stock solution in cell culture medium. […] At the end, cells were harvested at different time points for analyses as described below.
as §2, with “Stem cell growth media was then replaced with osteogenic media supplied with or without OA and BMP2.” left out

Notch signaling = assay: Notch responsive RBPJ-Luc luciferase assay; format: cell-based, human; details: MSCs, 0, 10 μM and 20 μM OA, 48 hours
Protocol: Luciferase assay: 80% confluence MSCs were transfected with Notch responsive RBPJ-Luc and SV40-Renilla-Luc (Promega) in the presence of Lipofectamine 2000 (Invitrogen) followed by OA treatment. At 24 hours after transfection and treatment, lysates were analyzed with a Dual Luciferase Assay Kit (Promega).
The inventor has identified the RBPjk-dependent Notch pathway as an important inducer of MSC proliferation, and an inhibitor of MSC differentiation during mouse limb-bud and postnatal bone development. In this study, the inventor further tested whether Notch signaling is also involved in OA-mediated osteogenesis. To do so, MSCs were first transfected with the RBPjk-dependent NOTCH-responsive luciferase reporter, and then cultured in medium containing 0, 10 μM and 20 μM OA for 48 hours. […] Moreover, down-regulation of Notch target gene Hes1 expression was also observed in OA treated MSCs (FIG. 1E), which further confirmed the inhibitory effect of OA on Notch signaling.

Notch target gene Hes1 = assay: Real time PCR of Notch target gene Hes1; format: cell-based, human; details: OA treated MSCs, day 7, vs DMSO treated control
Protocol: as §3

NICD = assay: Western blot of NICD; format: cell-based, human; details: OA treated MSCs, day 3
phospho-smad1/5/8 = assay: RT-PCR and western blot of phospho-smad1/5/8; format: cell-based, human; details: MSCs
Protocol: Real time RT-PCR: cDNA was synthesized from 1 μg total RNA using the SuperScript III reverse transcriptase kit (Invitrogen) in a final volume of 20 μl. Primers were designed with the IDT SCI primer design tool (Integrated DNA Technologies, San Diego, Calif.). RT-PCR experiments were performed with a Bio-Rad C1000 thermal cycler (Bio-Rad, Hercules, Calif.), and real-time PCR experiments were performed with an ABI prism 7500 (Applied Biosystems, Grand Island, N.Y.) in triplicate. […] Samples were analyzed in triplicate, and the raw data consisted of PCR cycle numbers required to reach a fluorescence threshold level. The relative expression level of target genes was normalized to (β-actin gene.
Western blot analysis: MSCs cultured with or without OA and BMP2 treatment were lysed in RIPA buffer (10 mM Tris-HCI, 1 mM EDTA, 1 sodium dodecyl sulfate [SDS], 1% NP-40, 1:100 proteinase inhibitor cocktail, 50 mM β-glycerophosphate, 50 mM sodium fluoride). The samples were separated on a 10% SDS polyacrylamide gel and transferred to polyvinylidene difluoride (PVDF) membranes with a semi-dry transfer apparatus (Bio-Rad). The membranes were blotted with 5% dehydrated milk for two hours, and then, incubated with primary antibodies overnight. […]

MSCs [4] = assay: Lentivirus-mediated Notch activation (NICD1 overexpression) in OA treated MSCs; format: cell-based, human
MSC/HA pellet = assay: In vivo ectopic bone-formation assay; details: MSCs with 20 μM OA, subcutaneous in nude mice, six weeks
Protocol: In vivo ectopic bone-formation assay: All animal studies were reviewed and approved by the Animal Ethics Committee of Louisiana State University Health Sciences Center. 1.0×10^6 total MSCs were re-suspended in 80 μl of MSC growth media containing 20 μM OA and gently mixed with 50 mg of hydroxyapatite (HA) powder (Himed). The composites were then centrifuged for two minutes at 200 rpm to form a MSC/HA pellet. For ectopic bone formation surgery, ten 8-week-old NOD.CB17^−Prkdescid/J mice (Charles River) (up to 2 implants for each animal) were anesthetized and the dorsal skin was cleaned with 70% ethanol. Two incisions of ˜1 cm in length were performed on the opposite flanks of the back, and then a pocket was formed by blunt dissection. Finally the MSC/HA pellets were implanted. Six weeks post-surgery, transplanted BMSC/HA pellets were harvested for gross observation and Masson's trichrome staining. […] All animal work was performed in accordance with institution approved guidelines.
MSCs were first dissolved in PBS containing 20 μM OA, then mixed with HA ceramic powder, and centrifuged into MSC/HA pellets prior to subcutaneous transplantation into nude mice. After six weeks of growth and differentiation, the pellets were harvested for gross observation, Masson's trichrome and immunohistochemistry staining (FIG. 4A).

normal cells = details: cited from earlier work

## CC1(C)CC[C@]2(C(=O)O)CC[C@]3(C)C(=CC[C@@H]4[C@@]5(C)CC[C@H](O)C(C)(C)[C@@H]5CC[C@]43C)[C@@H]2C1 [OA, (3β)-3-hydroxyolean-12-en-28-oic acid]
MSCs [1]; OA 10 μM
  cell death in cell viability assay: no cell death
MSCs [1]; OA 20 μM
  cell death in cell viability assay: no cell death
MSCs [1]; OA 30 μM
  cell death in cell viability assay: significant cell death
MSCs [2]
  ALP expression (early osteogenic marker): enhanced expression
  Col1a1 expression (early osteogenic marker): enhanced expression
  OC expression (later osteogenic marker): remained unchanged
  OPN expression (later osteogenic marker): remained unchanged
  Runx2 expression (early osteogenic marker): enhanced expression
MSCs [3]; OA 20 μM and/or BMP2 200 ng/ml, seven days, osteogenic medium
  ALP activity (ALP staining): significant increase; also recorded: relative weak ALP staining
MSCs [3]; OA 10 and 20 μM, seven days
  ALP staining (MSC osteogenic differentiation): dose dependent increase
MSCs [3]; OA treated MSCs at day 7, maximal staining at 20 μM
  osteogenic nodule formation: increase in osteogenic nodule formation
Notch signaling
  Notch-responsive luciferase activity: inhibited Notch-responsive luciferase activity dose dependently
Notch target gene Hes1
  Notch target gene Hes1 expression: down-regulation
NICD
  expression of NICD (western blot): significantly reduced
phospho-smad1/5/8; day 7, OA 20 μM, BMP2 200 ng/ml
  gene expression of p-smad1/5/8 (RT-PCR): did not show any effects
phospho-smad1/5/8; day 7, control vs OA treated
  p-smad1/5/8 expression (western blot): no significant difference
MSCs [4]; NICD1 lentivirus infected MSCs, OA, day 7
  OA-induced ALP staining under overexpression of NICD1: totally blocked
MSCs [4]; NICD1 lentivirus, RT-PCR, day 7, vs control or OA treated MSCs
  expression of ALP, Runx2 and Col1a1 in Notch activated MSCs with OA: significantly reduced
MSC/HA pellet
  increase of type I collagen bone matrix (blue) in the pellet area vs untreated MSCs: approximately 4 fold
  pellet area stained blue (type I collagen bone matrix, Masson's trichrome): 30%
Normal cells
  cytotoxicity to normal cells: no significant cytotoxicity
